Holding throughout (type): functional
Assay [1] is described as follows: Cytotoxicity against human MIAPaCa2 cells assessed as cell growth inhibition at 10 uM after 48 hrs by MTT assay. Conditions: MIA PaCa-2, 48 h, read-out: GI. (In general: Tetrazolium dyes change colour on reduction, which living cells bring about.)
Assay [2] can be described thus: Cytotoxicity against human PC3 cells assessed as cell growth inhibition at 10 uM after 48 hrs by MTT assay. Conditions: PC-3, 48 h, read-out: GI.
A short description of assay [3]: Cytotoxicity against human HL60 cells assessed as cell growth inhibition at 10 uM after 48 hrs by MTT assay. Conditions: HL-60, 48 h, read-out: GI.
Another assay deals with A549. The experiment in a line: Cytotoxicity against human A549 cells assessed as cell growth inhibition at 10 uM after 48 hrs by MTT assay. Conditions: A549, 48 h, read-out: GI.

`C=C(C)[C@@H]1CC[C@]2(C(=O)OCc3cn(-c4ccc(OCCC)c(Cl)c4)nn3)CC[C@]3(C)[C@H](CC[C@@H]4[C@@]5(C)CC[C@H](O)C(C)(C)[C@@H]5CC[C@]43C)[C@@H]12`: the inhibition of growth at 10 µM in assay [1] came to 3%; in assay [2], 7%; in assay [3], 23%; with A549, 1%.
In the same order, the values of `C=C(C)[C@@H]1CC[C@]2(C(=O)OCc3cn(-c4ccc(C=O)cc4)nn3)CC[C@]3(C)[C@H](CC[C@@H]4[C@@]5(C)CC[C@H](O)C(C)(C)[C@@H]5CC[C@]43C)[C@@H]12` are 7%, 9%, 21% and 4%.
For `C=C(C)[C@@H]1CC[C@]2(C(=O)OCc3cn(-c4ccccc4C#N)nn3)CC[C@]3(C)[C@H](CC[C@@H]4[C@@]5(C)CC[C@H](O)C(C)(C)[C@@H]5CC[C@]43C)[C@@H]12` the same measures were 4%, 6%, 22% and 9%.
Turning to `C#CCOC(=O)[C@]12CC[C@@H](C(=C)C)[C@@H]1[C@H]1CC[C@@H]3[C@@]4(C)CC[C@H](O)C(C)(C)[C@@H]4CC[C@@]3(C)[C@]1(C)CC2`, the inhibition of growth at 10 µM turned out to be 20% in assay [1], 46% in assay [2], 50% in assay [3] and 41% in the assay on A549.
Take `C=C(C)[C@@H]1CC[C@]2(C(=O)OCc3cn(-c4ccc(F)cc4)nn3)CC[C@]3(C)[C@H](CC[C@@H]4[C@@]5(C)CC[C@H](OCc6cn(-c7ccc(F)cc7)nn6)C(C)(C)[C@@H]5CC[C@]43C)[C@@H]12`: the inhibition of growth at 10 µM in assay [1] was determined as 7%; in assay [2], 8%; in assay [3], 13%; in the assay on A549 it was 11%.
As for `C=C(C)[C@@H]1CC[C@]2(C(=O)OCc3cn(-c4cccc5c(O)cccc45)nn3)CC[C@]3(C)[C@H](CC[C@@H]4[C@@]5(C)CC[C@H](OCc6cn(-c7cccc8c(O)cccc78)nn6)C(C)(C)[C@@H]5CC[C@]43C)[C@@H]12`, the inhibition of growth at 10 µM in assay [1] was found to be 19%; in assay [2] it was 18%; in assay [3], 23%; with A549 it was 18%.
As to `C=C(C)[C@@H]1CC[C@]2(C(=O)OCc3cn(-c4cccc(OCc5ccc(F)cc5)c4)nn3)CC[C@]3(C)[C@H](CC[C@@H]4[C@@]5(C)CC[C@H](O)C(C)(C)[C@@H]5CC[C@]43C)[C@@H]12`, the inhibition of growth at 10 µM in assay [1] worked out at 9%; in assay [2], 4%; in assay [3], 32%; in the assay with A549, 6%.
In the case of `C=C(C)[C@@H]1CC[C@]2(C(=O)OCc3cn(-c4ccc(C(C)(C)C)cc4)nn3)CC[C@]3(C)[C@H](CC[C@@H]4[C@@]5(C)CC[C@H](O)C(C)(C)[C@@H]5CC[C@]43C)[C@@H]12`, the inhibition of growth at 10 µM was 9% in assay [1], 9% in assay [2], 11% in assay [3] and 9% in the assay with A549.
For the compound `C=C(C)[C@@H]1CC[C@]2(C(=O)OCc3cn(-c4c(F)ccc(OC)c4Br)nn3)CC[C@]3(C)[C@H](CC[C@@H]4[C@@]5(C)CC[C@H](O)C(C)(C)[C@@H]5CC[C@]43C)[C@@H]12`, the inhibition of growth at 10 µM in assay [1] turned out to be 7%; in assay [2] it was 5%; in assay [3], 12%; with A549, 7%.
